From US20120035247A1, “RNA Interference Mediated Inhibition of Signal Transducer and Activator of Transcription 6 (STAT6) Gene Expression Using Short Interfering Nucleic Acid (siNA)” (Merck Sharp & Dohme Corp., priority 2009, published 2012)
[invAb] = inverted abasic unit; m = 2'-O-methyl; r = 2'-OH (RNA); f = 2'-fluoro

Legend:
Assay type in all cases: cell-based
STAT6 mRNA [1] = test: STAT6 siNA screen and dose response in human A549 cells, STAT6 mRNA by quantitative RT-PCR (Taqman); settings: for % KD STAT6 mRNA 10 nM / IC50: Table 4, human A549 cells; for % KD STAT6 mRNA 10 nM / IC50 / % KD STAT6: mean ± S.D.; for % KD STAT6 10 nM: Table 5, A549 cells, three experiments, mean ± standard deviation; for % KD STAT6: human A549 cells, 10 nM siNA, 24 hrs, normalized to GAPDH and non-targeting control, n = 3
Procedure, shortened: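 A549 cells were transfected with siNA–RNAiMax complexes at a final 10 nM siNA and incubated 24 h without a medium change. STAT6 mRNA was measured by TaqMan qRT-PCR on cell lysates. Knock-down was calculated by the comparative Ct (ΔΔCt) method against the non-targeting control siNA, with relative expression taken as 2^−ΔΔCt.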

STAT6 mRNA [2] = test: STAT6 siNA screen in mouse NIH 3T3 cells, STAT6 mRNA by quantitative RT-PCR (Taqman); settings: mouse NIH3T3 cells, 10 nM siNA, 24 hrs, normalized to GAPDH and non-targeting control, n = 2
Procedure, shortened: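 NIH 3T3 cells, 5000/well, transfected after 24 h with siNA (10 nM final) via RNAiMax and harvested 24 h later. STAT6 mRNA quantified by TaqMan RT-qPCR with GAPDH; knock-down by comparative Ct (2^−ΔΔCt) against non-targeting control siNA.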

[3] = system: human STAT4 mRNA transcript; test: STAT4 specificity screen in human A549 cells, STAT4 mRNA by quantitative RT-PCR; settings: three experiments, mean ± standard deviation
Procedure: A549 (human; ATCC cat# CCL-185): Cells were cultured at 37° C. in the presence of 5% CO2 and grown in Ham's F12K medium with 2 mM L-glutamine adjusted to contain 1.5 g/L sodium bicarbonate and supplemented with fetal bovine serum at a final concentration of 10%, 100 μg/mL of streptomycin, and 100 U/mL penicillin.
A series of probes and primers were used to detect the various mRNA transcripts of the genes of 13-Actin (human cell line only), and of STATE and GAPDH in mouse and human cell lines. All Taqman probes and primers for the experiments here-in described were supplied as pre-validated sets by Applied Biosystems, Inc. (see Table 2).
The assays were performed on an ABI 7900 instrument, according to the manufacturer's instructions. A TaqMan Gene Expression Master Mix (provided in the Cells-to-CTT™, Applied Biosystems, Cat #4399002) was used. The PCR reactions were carried out at 50° C. for 2 min, 95° C. for 20 min followed by 40 cycles at 95° C. for 15 secs and 60° C. for 1 min.
The expression level of the gene of interest and % knock-down was calculated using Comparative Ct method:
ΔΔCt=ΔCt(Target siNA)−ΔCt(NTC)
Relative expression level=2^−ΔΔCt
The non-targeting control siNA was, unless otherwise indicated, chosen as the value against which to calculate the % knock-down, because it is the most relevant control.
The siNAs from Table 4 were tested in human A549 cell line at a lower concentration (1 nM versus the original screening concentration of 10 nM) to determine the effect of the STATE siRNAs on the mRNA transcript of human STAT4.

Substance | % KD STAT6 mRNA 10 nM (STAT6 mRNA [1]) [%] | IC50 (STAT6 mRNA [1]) [pM] | % KD STAT6 10 nM (STAT6 mRNA [1]) [%] | % KD STAT6 (STAT6 mRNA [1]) [%] | % KD STAT6 (STAT6 mRNA [2]) [%] | % KD STAT4 1 nM [3] [%]
30008-DC: STAT6 siNA duplex; sense SEQ ID NO: 80, antisense SEQ ID NO: 81; target CUGCUCUGCUCAGAUGUGA, site 2549 (sense CUGCUCUGCUCAGAUGUGATT; antisense UCACAUCUGAGCAGAGCAGUU; sense: DNA at AGT, 2'-fluoro at CU, [invAb] at 5' end, 3' end, backbone not given here; antisense: sugars from the 5' end rrrfmfffmmmfmmmmfmmmm, backbone not given here) [STAT6 siNA duplex; target CUGCUCUGCUCAGAUGUGA, site 2549] | 72.6 ± 4.5 | 21.6 ± 12.4 | 72.6 ± 4.5 | 72.6 ± 4.5 | 77.9 ± 7.5 | 16.4 ± 17
29997-DC: STAT6 siNA duplex; sense SEQ ID NO: 58, antisense SEQ ID NO: 59; target CUACCAUGGUGCCUUCUUA, site 2262 (sense CUACCAUGGUGCCUUCUUATT; antisense UAAGAAGGCACCAUGGUAGUU; sense: DNA at AGT, 2'-fluoro at CU, [invAb] at 5' end, 3' end, backbone not given here; antisense: sugars from the 5' end rrrmmmmmfmffmfmmfmmmm, backbone not given here) [STAT6 siNA duplex; target CUACCAUGGUGCCUUCUUA, site 2262] | 68.1 ± 6.2 | 18.1 ± 8.3 | 68.1 ± 6.2 | 68.1 ± 6.2 | 28.7 ± 6.1 | 2.6 ± 25
29990-DC: STAT6 siNA duplex; sense SEQ ID NO: 44, antisense SEQ ID NO: 45; target GUGAAAGCCUGGUGGACAU, site 954 (sense GUGAAAGCCUGGUGGACAUTT; antisense AUGUCCACCAGGCUUUCACUU; sense: DNA at AGT, 2'-fluoro at CU, [invAb] at 5' end, 3' end, backbone not given here; antisense: sugars from the 5' end rrrfffmffmmmfffffmfmm, backbone not given here) [STAT6 siNA duplex; target GUGAAAGCCUGGUGGACAU, site 954] | 71.7 ± 1.8 | 23 ± 8.7 | 71.7 ± 1.8 | 71.7 ± 1.8 | 41.6 ± 7.4 | −2.1 ± 25.7
